Test results reported in patent US20240382472A1, “NEUTROPHIL ELASTASE INHIBITORS FOR USE IN THE TREATMENT OF FIBROSIS” (MEREO BIOPHARMA 4 LIMITED, priority 2021, published 2024).
Several values for one entry are separate records, joined by “and”; a condition that tells them apart may be missing. Identical values can stand only once.

Key:
[1] = tested on: desmosine (DES) and isodesmosine (IDES); experiment: Phase 1b study: plasma desmosine and isodesmosine by isotope-dilution LC/MS; type: in vivo, human
Description: (§1) Patients age ≥18 years with BOS and chronic GVHD after HCT were recruited to the National Cancer Institute protocol (NCT02669251). This phase 1 study had 2 parts: 8-week intra-patient dose escalation period, followed by a continuation period that allowed for up to 6 months of treatment. Alvelestat was given orally starting at 60 mg twice daily, increased every 2 weeks to 120 mg twice daily, 180 mg twice daily, and finally 240 mg twice daily.
(§2) Blood biomarkers for neutrophil elastase activity, desmosine, isodesmosine, PRO-C3 and PRO-C6, were collected at baseline (pre-treatment with alvelestat) and after every 2 weeks during alvelestat dose escalations i.e. after 60 mg bid, 120 mg bid, 180 mg bid and 240 mg bid.
DES and IDES levels in the plasma were measured by an isotope-dilution, liquid-chromatography/mass spectrometry method (Huang et al Thorax 2012; 67:502-508).[12] [13]
Results are presented as Mean and Standard Error Mean (SEM). Samples were taken at baseline and at the end of each dose-escalation stage.

[2] = Phase 1b study in patients with BOS after HCT: tolerability and clinical outcome; type: in vivo
Description: as §1

[3] = tested on: C3M (collagen Type 3); experiment: 12-week study NCT03636347: collagen degradation biomarker C3M; type: in vivo, human; conditions: alvelestat at week 12, three treatment arms pooled, N = 34; ANCOVA
Description: (§3) An aspect of NCT03636347 was to investigate the effect of alvelestat on collagen biomarkers in patients with PiZZ, null or rare variant phenotype/genotype alpha-1 anti-trypsin deficient lung disease. % Change from baseline in a number collagen degradation biomarkers were measured over a 12 week period in alvelestat and placebo arms. Inclusion criteria: patients (18 Years to 75 Years) with a confirmed diagnosis of alpha-1-anti-trypsin deficiency and a PiZZ, null or other rare geno/phenotype and serum […] levels of less than 11 uM; FEV1≥20% predicted; Computerised tomography (CT) scan evidence of emphysema; and non-smokers. Alvelestat was given orally at 120 mg twice daily, 240 mg twice daily, or dose escalation up to 240 mg twice daily, so there were three alvelestat treatment arms. Collagen degradation biomarkers […] (collagen Type 1), […] (collagen Type 6), […] (collagen Type 4) C3M (collagen Type 3) were collected at baseline (e.g. before treatment with alvelestat or placebo) and after 12 weeks following treatment with alvelestat or placebo. Biomarkers related to C3M and […] were measured by competitive Enzyme Linked Immunosorbant Assay (ELISA) (Nordic Biosciences, Denmark).[1] Biomarkers related to […] and […] were measured with Nordic Bioscience assays [Chest. […] C1M, […] concentrations were measured in ng/mL. […]

[4] = target: T1, Neutrophil Elastase (NE) (Homo sapiens, UniProt P08246); experiment: Phase 1b study: ex-vivo zymosan-stimulated neutrophil elastase activity in whole blood; parameters: induce degranulation of white blood cells including neutrophils, releasing an excess of free active NE into the plasma; from tissue; host or cells: whole blood of patients (neutrophils degranulated with zymosan); plasma measured with ProteaseTag Active Neutrophil Elastase Immunoassay (ProAxsis Ltd); conditions: FIG. 2
T1 sequence (P08246 30-267): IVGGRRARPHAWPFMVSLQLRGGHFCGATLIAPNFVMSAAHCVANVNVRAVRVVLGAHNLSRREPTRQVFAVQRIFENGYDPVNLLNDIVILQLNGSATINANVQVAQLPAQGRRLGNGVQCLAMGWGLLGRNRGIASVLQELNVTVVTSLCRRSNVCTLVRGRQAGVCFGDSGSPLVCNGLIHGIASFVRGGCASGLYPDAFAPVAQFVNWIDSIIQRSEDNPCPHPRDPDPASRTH
Description: Patients age ≥18 years with BOS and chronic GVHD after HCT were recruited to the National Cancer Institute protocol (NCT02669251). […] Alvelestat was given orally starting at 60 mg twice daily, increased every 2 weeks to 120 mg twice daily, 180 mg twice daily, and finally 240 mg twice daily.
as §2
Ex-vivo zymosan-stimulated Neutrophil Elastase (NE) activity was measured by the following assay: zymosan was added to whole blood to induce degranulation of white blood cells including neutrophils, releasing an excess of free active NE into the plasma. The blood was centrifuged and plasma removed. The level of NE in the plasma sample was measured by the ProteaseTag® Active Neutrophil Elastase Immunoassay (ProAxsis Ltd, Belfast, Northern Ireland).

[5] = tested on: C4Ma3 (collagen Type 4); experiment: 12-week study NCT03636347: collagen degradation biomarker C4Ma3; type: in vivo, human; conditions: alvelestat at week 12, three treatment arms pooled, N = 17; ANCOVA
Description: as §3

[6] = target: T1, Neutrophil Elastase (NE); conditions: from WO2021/053058, Examples 1-5; cited from earlier work
[7] = tested on: PRO-C6; experiment: Phase 1b study: collagen type 6 synthesis biomarker PRO-C6 by competitive ELISA; type: in vivo, human; conditions: above ULN at baseline; during alvelestat treatment; FIG. 3B
Description: as §1, §2
(§4) Biomarkers of novel epitopes (neoepitopes) related to collagen turnover and fibrosis (PRO-C6, PRO-C3, C3M, and C6M) were measured by competitive Enzyme Linked Immunosorbant Assay (ELISA) (Nordic Biosciences, Denmark).[1]

[8] = tested on: C6M (collagen Type 6); experiment: 12-week study NCT03636347: collagen degradation biomarker C6M; type: in vivo, human; conditions: alvelestat at week 12, three treatment arms pooled, N = 36; ANCOVA
Description: as §3

[9] = tested on: C1M (collagen Type 1); experiment: 12-week study NCT03636347: collagen degradation biomarker C1M; type: in vivo, human; conditions: alvelestat at week 12, three treatment arms pooled, N = 32; alpha-1 anti-trypsin deficient lung disease; ANCOVA
Description: as §3

[10] = tested on: PRO-C3; experiment: Phase 1b study: collagen type 3 synthesis biomarker PRO-C3 (and PRO-C3:C3M ratio) by competitive ELISA; type: in vivo, human
Description: as §1, §2, §4

[11] = from WO2021/053058, Examples 1-5; cited from earlier work

Cc1c(-c2ccnn2C)cc(C(=O)NCc2ccc(S(C)(=O)=O)cn2)c(=O)n1-c1cccc(C(F)(F)F)c1 [alvelestat, N-{[5-(methanesulfonyl)pyridin-2-yl]methyl}-6-methyl-5-(1-methyl-1H-pyrazol-5-yl)-2-oxo-1-[3-(trifluoromethyl)phenyl]-1,2-dihydropyridine-3-carboxamide]
DES and IDES plasma level, mean (SEM) ([1]; patients with BOS after HCT, N=7, week 8 of dose escalation 60 to 240 mg twice daily oral, baseline 0.464): 0.380 (SEM 0.0419) ng/ml
DES and IDES mean within subject % change from baseline (CFB) ([1]; week 8 of dose escalation, SEM 6.794, FIG. 1): −16.2%
Tolerability of dose escalation ([2]; all 7 patients, up to maximum dose 240 mg twice daily): able to tolerate dose escalation
Lung disease outcome (FEV1% predicted at end of treatment no worse than 10% below baseline level) ([2]; the 6 patients with biomarker suppression): improved or stable lung disease
Patients with consistent suppressive effect on biomarkers of elastase activity and collagen turnover ([2]; treated patients, phase 1b): 6 of 7
C3M change from baseline (%), LS Means (SE) [3]: −1.7 (4.08) %
Ex vivo zymosan stimulated elastase activity, course ([4]; over the dose escalation period, N=7): progressive decrease
Suppression of ex vivo zymosan stimulated elastase activity ([4]; some subjects, dose escalation period): 100%
C4Ma3 change from baseline (%), LS Means (SE) [5]: −6.6 (8.96) %
Inhibition of neutrophil elastase (NE) [6]: potent and specific inhibitor
Collagen synthesis as measured by PRO-C6 [7]: declined
C6M change from baseline (%), LS Means (SE) [8]: 1.1% and 1.1 (5.52) %
C1M change from baseline (%), LS Means (SE) [9]: −0.6% and −0.6 (49.42) %
Collagen synthesis as measured by PRO-C3 ([10]; above ULN at baseline, during alvelestat treatment, FIG. 3A): declined
Ratio of PRO-C3 to C3M ([10]; blood samples during the study, n=7, FIG. 4): decrease
Effect against GVHD [11]: protective effect
